According to patent US20230151034A1 (COCRYSTAL PHARMA, INC., priority 2020, published 2023):
Where a SMILES comes first, the peptide text is derived from it. [ ]: non-standard residue; d: D form. The star is where a group is joined. ξ: configuration not given here. ξαMeE = CC(N)(CCC(=O)O)C(=O)O; Nonanoyl = CCCCCCCCC(=O)*

Legend:
[1] = biological target: HuNV GGII.4 Norovirus protease (Norovirus GII.4 (human norovirus genogroup II genotype 4), UniProt P54634); experiment: Norovirus protease FRET assay (HuNV GGII.4); format: biochemical; details: Table C; FRET protease assay; read-out: HuNV GGII.4 IC50
Sequence of HuNV GGII.4 Norovirus protease (P54634 1009-1189): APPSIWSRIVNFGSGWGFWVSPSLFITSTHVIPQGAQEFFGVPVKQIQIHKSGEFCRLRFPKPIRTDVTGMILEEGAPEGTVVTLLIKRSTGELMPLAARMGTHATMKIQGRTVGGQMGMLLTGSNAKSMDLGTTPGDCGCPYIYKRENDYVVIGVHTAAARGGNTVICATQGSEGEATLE

[2] = biological target: SARS2 protease (Severe acute respiratory syndrome coronavirus 2, UniProt P0DTD1); experiment: SARS-CoV-2 protease inhibition assay (SARS2 FRET protease assay); format: biochemical; details: Table E; SARS-CoV-2 protease inhibition; read-out: IC50
In short: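 SARS-CoV-2 protease (25 nM) was incubated for 30 min at 30 °C with 1.3 μM quenched 5-FAM/TAMRA peptide substrate and compound (3-fold dilutions, 20 μM–1.0 nM). The buffer was 20 mM HEPES-Na pH 7, 120 mM NaCl, 0.4 mM EDTA, 0.01% Triton, 5% glycerol and 4 mM DTT. Fluorescence was read at ex 473 and em 519 nm, and IC50 was derived.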

[3] = biological target: Norwalk GGI.1 Norovirus protease (Norovirus, UniProt Q83883); experiment: Noro-Norwalk FRET protease assay (Norwalk GGI.1); format: biochemical, Norwalk virus; details: Table C; FRET protease assay; read-out: Norwalk GGI.1 IC50
Sequence of Norwalk GGI.1 Norovirus protease (Q83883 1101-1281): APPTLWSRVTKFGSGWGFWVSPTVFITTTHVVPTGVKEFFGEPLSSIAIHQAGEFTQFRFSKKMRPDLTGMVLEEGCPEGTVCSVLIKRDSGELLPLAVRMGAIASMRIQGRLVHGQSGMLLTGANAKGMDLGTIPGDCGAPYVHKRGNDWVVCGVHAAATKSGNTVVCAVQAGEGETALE
Method: Viral protease assays: The antiviral activities of inhibitors were determined by FRET (Fluorescence Resonance Energy Transfer) assay. Purified viral protease was incubated with the protease substrate peptide (Edans-DFHLQ/GP-Dabcyl) and inhibitor, and IC50 values were subsequently determined by the fluorescence signals.
The Noro-Norwalk FRET protease assay was performed in 50 mM HEPES-Na pH 8, 50 mM NaCl, 0.4 mM EDTA, 4% glycerol, and 6 mM DTT. A self-quenching peptide substrate [5-FAM]-[…]-[TAMRA] was custom synthesized by Anaspec. Compounds were diluted in 3-fold serial dilutions to final concentrations of 200 μM to 10.2 nM. Noro protease was added to a final concentration of 1-7 μM, depending on the enzyme activity level, and the peptide substrate was added to a final concentration of 10 μM. The assay was incubated 90 minutes at 37° C. and read in a Perkin Elmer Envision with excitation at 473 nm and emission measurement at 519 nm.

**Q.** With CCOCCOCCN(C)C(=O)CC[C@H](NC(=O)C(CC1CCCCC1)NC(=O)OCc1cccc(Cl)c1)C(O)P(=O)(OCC)OCC (stereo in doubt) [Compound A11, 3-Chlorobenzyl ((13S,16S)-17-cyclohexyl-13-((diethoxyphosphoryl)(hydroxy)methyl)-9-methyl-10,15-dioxo-3,6-dioxa-9,14-diazaheptadecan-16-yl)carbamate] as the compound, how does the IC50 [1] read?
**A.** The IC50 was 114 µM.

**Q.** What about the IC50 [2] of the same compound?
**A.** Its IC50 is greater than 200 µM.

**Q.** What about the IC50 [3] of the same compound?
**A.** The IC50 was 133 µM.

**Q.** Which IC50 [1] does the source give for CCCCCN(C)C(=O)CC[C@@H](C=O)NC(=O)[C@H](CC1CCCCC1)NC(=O)OCc1cccc(Cl)c1 [Compound A7, 3-chlorobenzyl ((S)-3-cyclohexyl-1-(((S)-5-(methyl(pentyl)amino)-1,5-dioxopentan-2-yl)amino)-1-oxopropan-2-yl)carbamate] here?
**A.** The IC50 was 11.1 µM.

**Q.** What about the IC50 [2] of the same compound?
**A.** The IC50 was 3.2 µM.

**Q.** And the IC50 [3]?
**A.** The IC50 was 1.6 µM.

**Q.** CN(Cc1ccccc1)C(=O)CC[C@@H](C=O)NC(=O)[C@H](CC1CCCCC1)NC(=O)OCc1cccc(Cl)c1 [Compound A18, 3-Chlorobenzyl ((S)-1-(((S)-5-(benzyl (methyl)amino)-1,5-dioxopentan-2-yl)amino)-3-cyclohexyl-1-oxopropan-2-yl) carbamate] was tested. Which IC50 [1] did it give?
**A.** Its IC50 is 14.5 µM.

**Q.** What about the IC50 [2] of the same compound?
**A.** The IC50 was greater than 200 µM.

**Q.** What about the IC50 [3] of the same compound?
**A.** The IC50 was 2.7 µM.

**Q.** Which results are given for CON(C)C(=O)[C@H](CCC(=O)N1CCCC(c2ccccc2)C1)NC(=O)[C@H](CC1CCCCC1)NC(=O)OCc1cccc(Cl)c1 (stereo in doubt) [Compound A43, 3-chlorobenzyl ((2S)-3-cyclohexyl-1-(((2S)-1-(methoxy(methyl)amino)-1,5-dioxo-5-(3-phenylpiperidin-1-yl)pentan-2-yl)amino)-1-oxopropan-2-yl)carbamate]?
**A.** IC50 [1]: > 200 µM; IC50 [2]: 185 µM; IC50 [3]: 135 µM

**Q.** CN(CCc1ccccc1Cl)C(=O)CC[C@@H](C=O)NC(=O)[C@H](CC1CCCCC1)NC(=O)OCc1cccc(Cl)c1 [Compound A105, 3-Chlorobenzyl ((S)-1-(((S)-5-((2-chlorophenethyl)(methyl)amino)-1,5-dioxopentan-2-yl)amino)-3-cyclohexyl-1-oxopropan-2-yl)carbamate] was tested. Which IC50 [1] did it give?
**A.** The IC50 was 155 µM.

**Q.** And the IC50 [2]?
**A.** Its IC50 is greater than 200 µM.

**Q.** What about the IC50 [3] of the same compound?
**A.** The IC50 was 28.2 µM.

**Q.** CCOCCN(C)C(=O)CC[C@H](NC(=O)C(CC1CCCCC1)NC(=O)OCc1cccc(Cl)c1)C(O)P(=O)(OCC)OCC (stereo in doubt) [Compound A12, 3-chlorobenzyl ((2S)-3-cyclohexyl-1-(((2S)-1-(diethoxyphosphoryl)-5-((2-ethoxyethyl)(methyl)amino)-1-hydroxy-5-oxopentan-2-yl)amino)-1-oxopropan-2-yl)carbamate] was tested. Which IC50 [1] did it give?
**A.** Its IC50 is greater than 200 µM.

**Q.** What about the IC50 [2] of the same compound?
**A.** Its IC50 is 5.4 µM.

**Q.** What about the IC50 [3] of the same compound?
**A.** Its IC50 is 122 µM.

**Q.** How did the IC50 [1] turn out when CCNC(=O)NCCN(C)C(=O)CC[C@H](NC(=O)[C@H](CC1CCCCC1)NC(=O)OCc1cccc(Cl)c1)C(O)P(=O)(OCC)OCC (stereo partly drawn) [Compound A16, 3-Chlorobenzyl ((12S,15S)-16-cyclohexyl-12-((diethoxyphosphoryl)(hydroxy)methyl)-8-methyl-4,9,14-trioxo-3,5,8,13-tetraazahexadecan-15-yl)carbamate] was run?
**A.** The IC50 was greater than 200 µM.

**Q.** What about the IC50 [2] of the same compound?
**A.** The IC50 was greater than 200 µM.

**Q.** What about the IC50 [3] of the same compound?
**A.** Its IC50 is 81.9 µM.

**Q.** Which results are given for CCOP(=O)(OCC)C(O)[C@H](CCC(=O)N(C)Cc1ccccc1)NC(=O)[C@H](CC1CCCCC1)NC(=O)OCc1cccc(Cl)c1 (stereo partly drawn) [Compound A13, 3-Chlorobenzyl ((2S)-1-(((2S)-5-(benzyl (methyl)amino)-1-(diethoxyphosphoryl)-1-hydroxy-5-oxopentan-2-yl)amino)-3-cyclohexyl-1-oxopropan-2-yl) carbamate]?
**A.** IC50 [1]: > 200 µM; IC50 [2]: > 200 µM; IC50 [3]: 166 µM

**Q.** What does the source list for CCCCCCCCC(=O)N[C@@H](CC(C)C)C(=O)NC(C)(C=O)CCC(=O)N(C)C (stereo partly drawn) [Compound A1, N-((2S)-1-((5-(dimethylamino)-2-methyl-1,5-dioxopentan-2-yl)amino)-4-methyl-1-oxopentan-2-yl)nonanamide] (Nonanoyl-Leu-[ξαMeE](NMe2)-aldehyde)?
**A.** IC50 [1]: > 200 µM; IC50 [2]: > 200 µM; IC50 [3]: > 200 µM
